System: harmful plant species
Assay: Specific trial examples: binary compositions applied by the post-emergence method, synergistic effect according to Colby (Tables 3.1-3.2)
Format: in vivo
In short: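 Mono- and dicot weeds grown from seed or rhizome in sandy loam in greenhouse, sprayed post-emergence at three-leaf stage (three weeks after sowing) with formulated binary mixtures at various doses in 300–800 l/ha water. Efficacy rated at stated days after application; synergy judged versus summed single effects and Colby expected values.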

## CONC(=O)C1=C[C@@H](NC(=O)[C@@]2(C)CC(c3cc(F)cc(F)c3)=NO2)CO1 [Compound A5, (5R)-3-(3,5-difluorophenyl)-N-[(3R)-5-(methoxycarbamoyl)-2,3-dihydrofuran-3-yl]-5-methyl-4H-isoxazole-5-carboxamide]
1 g a.i./ha
  Herbicidal action 14 DAT against Lolium rigidum (resistant biotype): 10%
  Herbicidal action 14 DAT against Matricaria inodora: 30%
  Herbicidal action 14 DAT against Viola tricolor: 30%
  Herbicidal action 28 DAT against Centaurea cyanus: 10%
  Herbicidal action 28 DAT against Galium aparine: 30%
  Herbicidal action 28 DAT against Lamium purpureum L.: 40%
  Herbicidal action 28 DAT against Matricaria inodora: 0%
  Herbicidal action 28 DAT against Viola tricolor: 0%
4 g a.i./ha
  Herbicidal action 14 DAT against Lolium rigidum (resistant biotype): 20%
  Herbicidal action 14 DAT against Matricaria inodora: 50%
  Herbicidal action 14 DAT against Viola tricolor: 20%
  Herbicidal action 28 DAT against Centaurea cyanus: 20%
  Herbicidal action 28 DAT against Matricaria inodora: 10%
  Herbicidal action 28 DAT against Phalaris minor: 30%
  Herbicidal action 28 DAT against Viola tricolor: 0%
16 g a.i./ha
  Herbicidal action 14 DAT against Alopecurus myosuroides: 70%
  Herbicidal action 14 DAT against Lolium rigidum: 60%
  Herbicidal action 14 DAT against Lolium rigidum (resistant biotype): 30%
  Herbicidal action 14 DAT against Matricaria inodora: 50%
  Herbicidal action 14 DAT against Poa annua L.: 30%
  Herbicidal action 28 DAT against Alopecurus myosuroides: 40%
  Herbicidal action 28 DAT against Centaurea cyanus: 50%
  Herbicidal action 28 DAT against Lamium purpureum L.: 60%
  Herbicidal action 28 DAT against Matricaria inodora: 20%
  Herbicidal action 28 DAT against Phalaris minor: 40%
  Herbicidal action 28 DAT against Viola tricolor: 10%
(Z119) 14 DAT, g a.i./ha: r682 16, r683 30
  Herbicidal action against Lolium rigidum: 60%
(Z119) 14 DAT, g a.i./ha: r709 4, r710 270
  Herbicidal action against Phalaris minor: 70%
(Z119) 14 DAT, g a.i./ha: r729 4, r730 270
  Herbicidal action against Poa annua L.: 20%
(Z119) 28 DAT, g a.i./ha: r642 16, r643 4, r644 90, r645 30, r646 270
  Herbicidal action against Alopecurus myosuroides: 40%
(Z119) 28 DAT, g a.i./ha: r654 16, r655 30
  Herbicidal action against Centaurea cyanus: 50%
(Z119) 28 DAT, g a.i./ha: r662 1, r663 270
  Herbicidal action against Galium aparine: 30%
(Z119) 28 DAT, g a.i./ha: r690 16, r691 30
  Herbicidal action against Lolium rigidum: 30%
post-emergence, single active compound (A5 series), g a.i./ha: r591 16, r592 4, r593 450, r594 150, r595 50
  Herbicidal action in [%] 28 DAT against Alopecurus myosuroides: 40%
post-emergence, single active compound (A5 series), g a.i./ha: r617 4, r618 450
  Herbicidal action in [%] 28 DAT against Bromus sterilis: 60%
post-emergence, single active compound (A5 series), g a.i./ha: r649 1, r650 150
  Herbicidal action in [%] 14 DAT against Galium aparine: 50%
post-emergence, single active compound (A5 series), g a.i./ha: r659 1, r660 450
  Herbicidal action in [%] 14 DAT against Lamium purpureum L.: 60%
post-emergence, single active compound (A5 series), g a.i./ha: r669 1, r670 450
  Herbicidal action in [%] 28 DAT against Lamium purpureum L.: 40%
post-emergence, single active compound (A5 series), g a.i./ha: r700 16, r701 450, r702 150
  Herbicidal action in [%] 28 DAT against Phalaris minor: 40%
post-emergence, single active compound (A5 series), g a.i./ha: r710 16, r711 450, r712 150, r713 50
  Herbicidal action in [%] 14 DAT against Poa annua L.: 30%
post-emergence, single active compound, g a.i./ha: r679 16, r680 150, r681 50
  Herbicidal action in [%] 28 DAT against Lolium rigidum: 30%
post-emergence, single active compound, g a.i./ha: r689 16, r690 450, r691 150, r692 50
  Herbicidal action in [%] 14 DAT against Lolium rigidum (resistant bio type): 30%
post-emergence, single active compound, g a.i./ha: r721 16, r722 450
  Herbicidal action in [%] 28 DAT against Poa annua L.: 20%

From patent US20220053762A1, “HERBICIDAL COMPOSITIONS” (Bayer Aktiengesellschaft, priority 2018, published 2022)
